Laboratory results taken from patent publication US20230331690A1, “THC DERIVATIVES, ORAL DOSAGE FORMS COMPRISING SAME, USES THEREOF FOR TREATING DISEASES AND DISORDERS AND SYNTHESIS THEREOF” (BAR-ILAN UNIVERSITY, priority 2020, published 2023).
Values joined by “and” are separate entries in the source; they are usually repeats but may differ in a detail not shown here. Identical values can stand only once.

Tested on: hind paw of mice
Assay: Electronic Von-Frey mechanical sensitivity (withdrawal thresholds) after Paclitaxel-induced neuropathic pain
Type: in vivo
Details: for Withdrawal test, test 1 / Withdrawal test, test 4 / Withdrawal test, test 5 / Withdrawal test, test 2 / Withdrawal test, test 3 / Withdrawal test, test 6: per animal; for Withdrawal test, All group average: 8 mice; for Withdrawal test, Average: average per animal; for Withdrawal test, test 6: additional test
Method: Mechanical sensitivity was evaluated by measuring the changes in tactile sensitivity in the hind paw of mice, using an Electronic Von-Frey apparatus (EVF). Withdrawal thresholds were measured, using the EVF apparatus, first at baseline (time=0) and then following drug, in a few periods after administration, by applying an accurate force on specific areas of the skin and measuring the needed force for the mouse to lift its paw.
Paclitaxel was utilized for the stimulation of a chemotherapy-induced neuropathic pain. Paclitaxel is anti-cancer chemotherapy drug classified as a “plant alkaloid” and an “antimicrotubule agent”.
Mice were divided into three groups of 8 mice each, as follows: • (a) Group no. 1—Morphine as positive control; • (b) Group no. […] 3—synthetic THC derivative 9-Desmethyl THC.
A portion of Paclitaxel was administered to each mouse by i.p. injection, on days 1, 3, 5 and 7 from the beginning of the experiment. At day 8, withdrawal thresholds were measured first at baseline (time=0), thereafter each mouse received a single portion of a drug substance, at 5 mg/Kg body weight concentration, by oral gavage and measurements took place.
The first checking point was 1 hour after administration of each drug. For every mouse, its threshold for the pain perception in which it removes its hind paw after the stabbing of the Von-Frey hair has been checked. Needed force (in gram force units) was measured each time and was recorded for every checking. This test was repeated 5 times for each mouse consecutively.
This procedure was repeated for all the three groups. The next checking point was 3 hours after administration, where the last withdrawal thresholds measurements were performed on the next morning, on day 9, which was 24 hours after administration.
Morphine was utilized as a positive control where group no. 1 mice received morphine (dissolved in a saline solution (0.9%) and injected subcutaneously) as an analgesic agent, prior to the mechanical sensitivity tests.
The tests described in this example are complicated and depend on numerous factors. Accordingly, results above 10.0 gram force (marked with an asterisk) were not included in the evaluation of the experimental data. In cases of exceptional results, an additional test was performed mouse (test 6) in order to assure the exceptional result.

[1] = t = 1 h after 5 mg/Kg, * values excluded
[2] = t = 3 h after 5 mg/Kg, * values excluded
[3] = t = 24 h after 5 mg/Kg, * values excluded

## [2H]C([2H])([2H])C1=C[C@H]2c3c(O)cc(CCCCC)cc3OC(C)(C)[C@@H]2CC1([2H])[2H] [9-CD3-(8-D2)-THC]
T = 1 h after 5 mg/Kg single dose (oral gavage; morphine s.c.), * values >10.0 excluded from evaluation
  Withdrawal test, test 1: 4.7 gram force and 4.8 gram force and 6.0 gram force (2×) and 5.0 gram force and 4.5 gram force and 6.1 gram force and 7.1 gram force
T = 1 h after 5 mg/Kg
  Withdrawal test, All group average: 5.68 gram force
  Withdrawal test, Average: 4.54 gram force and 6.14 gram force and 6.76 gram force and 5.24 gram force and 5.64 gram force and 4.88 gram force and 6.16 gram force and 6.06 gram force
  Withdrawal test, test 4: 4.3 gram force and 4.5 gram force and 5.9 gram force and 6.7 gram force and 7.1 gram force and 4.7 gram force and 5.3 gram force and 4.2 gram force
  Withdrawal test, test 5: 5.4 gram force and 8.7 gram force and 7.7 gram force and 5.2 gram force and 4.3 gram force and 4.7 gram force and 4.5 gram force and 8.5 gram force
[1]
  Withdrawal test, test 2: 4.1 gram force and 5.8 gram force and 6.5 gram force and 4.0 gram force and 4.8 gram force and 4.6 gram force and 8.9 gram force and 5.6 gram force
  Withdrawal test, test 3: 4.2 gram force and 6.9 gram force and 7.7 gram force and 5.3 gram force and 7.5 gram force and 4.3 gram force and 6.1 gram force and 4.9 gram force
T = 3 h after 5 mg/Kg
  Withdrawal test, All group average: 5.67 gram force
  Withdrawal test, Average: 5.16 gram force and 6.42 gram force and 4.72 gram force and 6.08 gram force (2×) and 5.64 gram force and 5.92 gram force and 5.30 gram force
  Withdrawal test, test 2: 5.9 gram force and 5.4 gram force and 5.0 gram force and 5.1 gram force (2×) and 9.2 gram force and 7.2 gram force and 6.5 gram force
  Withdrawal test, test 4: 4.7 gram force and 9.2 gram force and 4.3 gram force and 5.9 gram force and 6.2 gram force and 6.6 gram force and 5.2 gram force and 4.6 gram force
  Withdrawal test, test 5: 5.8 gram force and 6.7 gram force and 4.0 gram force (2×) and 6.4 gram force and 4.5 gram force and 4.8 gram force and 5.3 gram force
  Withdrawal test, test 6: 4.1 gram force and 4.9 gram force (2×) and 4.3 gram force
[2]
  Withdrawal test, test 1: 4.6 gram force and 4.4 gram force (2×) and 4.7 gram force and 6.9 gram force and 8.2 gram force and 7.6 gram force and 4.5 gram force
  Withdrawal test, test 3: 4.8 gram force and 6.4 gram force and 5.6 gram force (3×) and *12.8 gram force and 4.7 gram force and 4.9 gram force
T = 24 h after 5 mg/Kg
  Withdrawal test, All group average: 5.28 gram force
  Withdrawal test, Average: 4.70 gram force and 5.96 gram force and 4.56 gram force and 6.33 gram force and 4.98 gram force and 5.32 gram force and 4.80 gram force and 5.56 gram force
  Withdrawal test, test 1: 6.0 gram force and 7.5 gram force and 4.0 gram force and 7.6 gram force and 5.0 gram force and 4.4 gram force and 4.9 gram force and 4.5 gram force
  Withdrawal test, test 2: 4.6 gram force and 6.0 gram force and 4.0 gram force and 7.5 gram force and 6.5 gram force and 5.3 gram force and 5.7 gram force and 5.0 gram force
  Withdrawal test, test 3: 4.6 gram force and 4.2 gram force and 4.0 gram force (2×) and 5.6 gram force and 5.4 gram force and 5.3 gram force and 6.8 gram force
  Withdrawal test, test 6: 4.5 gram force
T = 24 h after 5 mg/Kg, group average vs baseline
  Withdrawal test, Change from b.l.: −2.6%
[3]
  Withdrawal test, test 4: 4.3 gram force (2×) and 4.0 gram force and 6.8 gram force (2×) and *10.3 gram force and 4.1 gram force and 5.2 gram force
  Withdrawal test, test 5: 4.0 gram force (3×) and 8.1 gram force and 4.6 gram force and 5.1 gram force and 4.7 gram force and 6.3 gram force
